Assay results taken from the NIST ThermoML archive (doi:10.1016/j.fluid.2011.07.018).

Assay: xn = mol fraction of the nth substance listed
Details: 298.15 K, 101 kPa, Liquid; for speed of sound: Linear variable-path acoustic interferometer; for mass density: Vibrating tube method

Clc1ccc(Cl)c(Cl)c1 [1,2,4-trichlorobenzene] + C1CCOC1
Details | mass density [kg/m3] | speed of sound [m/s]
x2 = 0 | 1447.66 | 1272
x2 = 0.0358 | 1431.9 | 1303
x2 = 0.1451 | 1382.41 | 1326
x2 = 0.2456 | 1334.05 | 1346
x2 = 0.3483 | 1282.95 | 1355
x2 = 0.4617 | 1224.12 | 1352
x2 = 0.6012 | 1147.15 | 1339
x2 = 0.7076 | 1083.62 | 1327
x2 = 0.7639 | 1048.78 | 1320
x2 = 0.8162 | 1014.57 | 1313
x2 = 0.8743 | 975.21 | 1305
x2 = 0.9351 | 931.35 | 1300
x2 = 0.9642 | 909.82 | 1298

Clc1ccccc1Cl [1,2-dichlorobenzene] + C1CCOC1
Details | mass density [kg/m3] | speed of sound [m/s]
x2 = 0 | 1300.35 | 1269
x2 = 0.0327 | 1288.55 | 1274
x2 = 0.155 | 1244.23 | 1290
x2 = 0.3046 | 1189.35 | 1305
x2 = 0.4457 | 1135.03 | 1307
x2 = 0.5709 | 1084.3 | 1304
x2 = 0.6161 | 1065.67 | 1299
x2 = 0.6885 | 1034.31 | 1295
x2 = 0.7973 | 984.99 | 1283
x2 = 0.8425 | 963.65 | 1278
x2 = 0.8852 | 942.63 | 1274
x2 = 0.9451 | 911.72 | 1272

Clc1cccc(Cl)c1 [1,3-dichlorobenzene] + C1CCOC1
Details | mass density [kg/m3] | speed of sound [m/s]
x2 = 0 | 1282.82 | 1257
x2 = 0.0332 | 1272.22 | 1259
x2 = 0.1432 | 1234.54 | 1272
x2 = 0.272 | 1189.62 | 1276
x2 = 0.3809 | 1150.84 | 1277
x2 = 0.5198 | 1099.15 | 1276
x2 = 0.6244 | 1057.78 | 1275
x2 = 0.696 | 1027.92 | 1274
x2 = 0.8044 | 980.28 | 1270
x2 = 0.845 | 961.47 | 1265
x2 = 0.8852 | 941.79 | 1265
x2 = 0.942 | 912.92 | 1266

Cc1ccccc1Cl [2-chlorotoluene] + C1CCOC1
Details | mass density [kg/m3] | speed of sound [m/s]
x2 = 0 | 1077.63 | 1295
x2 = 0.1234 | 1057.75 | 1324
x2 = 0.264 | 1034.49 | 1345
x2 = 0.3444 | 1020.53 | 1347
x2 = 0.4669 | 998.27 | 1348
x2 = 0.5809 | 976.32 | 1343
x2 = 0.7119 | 949.73 | 1331
x2 = 0.7706 | 937.14 | 1326
x2 = 0.8264 | 924.69 | 1318
x2 = 0.8858 | 910.9 | 1310
x2 = 0.9564 | 893.59 | 1298
